From ChEMBL document CHEMBL1201862, “PubChem BioAssay data set” (2004)
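Briefly, cells in 96-well plates were exposed to five compound concentrations for 48 h, and endpoints were estimated by linear interpolation. Here, GI50 denotes the concentration required for 50% inhibition of growth.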 Calls of active or inactive are those of the source. No stated cut-off is given here; in the data, active = GI50 up to about 1.1 µM and inactive = higher.

Key:
Assay in all cases: NCI-60 cell line screen, 48 h
SK-OV-3 = tested on: SK-OV-3
SK-MEL-2 = tested on: SK-MEL-2
RXF 393 = tested on: RXF 393
NCI-H522 = tested on: NCI-H522
A498 = tested on: A498
HOP-62 = tested on: HOP-62
NCI-H226 = tested on: NCI-H226
CCRF-CEM = tested on: CCRF-CEM
LOX IMVI = tested on: LOX IMVI
786-0 = tested on: 786-0
MOLT-4 = tested on: MOLT-4
OVCAR-4 = tested on: OVCAR-4
ACHN = tested on: ACHN
SNB-19 = tested on: SNB-19
SNB-75 = tested on: SNB-75
HCT-15 = tested on: HCT-15
RXF 631 = tested on: RXF 631
Malme-3M = tested on: Malme-3M
OVCAR-8 = tested on: OVCAR-8
UO-31 = tested on: UO-31
DLD-1 = tested on: DLD-1
NCI-H23 = tested on: NCI-H23
SR = tested on: SR
SN12C = tested on: SN12C
HT-29 = tested on: HT-29
SW-620 = tested on: SW-620
UACC-62 = tested on: UACC-62
K562 = tested on: K562
HOP-92 = tested on: HOP-92
U-251 = tested on: U-251
DMS-273 = tested on: DMS-273
SF-539 = tested on: SF-539
SK-MEL-5 = tested on: SK-MEL-5
M19-MEL = tested on: M19-MEL
RPMI-8226 = tested on: RPMI-8226
M14 = tested on: M14
NCI-H460 = tested on: NCI-H460
LXFL 529 = tested on: LXFL 529
COLO 205 = tested on: COLO 205
UACC-257 = tested on: UACC-257
DMS-114 = tested on: DMS-114
TK-10 = tested on: TK-10
OVCAR-3 = tested on: OVCAR-3
HCT-116 = tested on: HCT-116
SNB-78 = tested on: SNB-78
SF-295 = tested on: SF-295
A549 = tested on: A549
HL-60 = tested on: HL-60
EKVX = tested on: EKVX
HCC 2998 = tested on: HCC 2998
SF-268 = tested on: SF-268
KM12 = tested on: KM12
OVCAR-5 = tested on: OVCAR-5
XF498 = tested on: XF498
IGROV-1 = tested on: IGROV-1
SK-MEL-28 = tested on: SK-MEL-28
KM-20L2 = tested on: KM-20L2
HOP-18 = tested on: HOP-18
CAKI-1 = tested on: CAKI-1

COc1ccc(O)c2c(=O)ccccc12
GI50 (SK-OV-3): > 100 µM (inactive)
GI50 (SK-MEL-2): > 100 µM (inactive)
GI50 (RXF 393): 4.79 µM (inactive)
GI50 (NCI-H522): 28.8 µM (inactive)
GI50 (A498): > 100 µM (inactive)
GI50 (HOP-62): > 100 µM (inactive)
GI50 (NCI-H226): 46.2 µM (inactive)
GI50 (CCRF-CEM): > 100 µM (inactive)
GI50 (LOX IMVI): > 100 µM (inactive)
GI50 (786-0): > 100 µM (inactive)
GI50 (MOLT-4): > 100 µM (inactive)
GI50 (OVCAR-4): > 100 µM (inactive)
GI50 (ACHN): > 100 µM (inactive)
GI50 (SNB-19): > 100 µM (inactive)
GI50 (SNB-75): > 100 µM (inactive)
GI50 (HCT-15): > 100 µM
GI50 (RXF 631): > 100 µM (inactive)
GI50 (Malme-3M): > 100 µM (inactive)
GI50 (OVCAR-8): > 100 µM (inactive)
GI50 (UO-31): 78.2 µM (inactive)
GI50 (DLD-1): > 100 µM (inactive)
GI50 (NCI-H23): > 100 µM (inactive)
GI50 (SR): > 100 µM (inactive)
GI50 (SN12C): > 100 µM (inactive)
GI50 (HT-29): > 100 µM (inactive)
GI50 (SW-620): > 100 µM (inactive)
GI50 (UACC-62): 92.3 µM (inactive)
GI50 (K562): > 100 µM (inactive)
GI50 (HOP-92): > 100 µM (inactive)
GI50 (U-251): > 100 µM (inactive)
GI50 (DMS-273): > 100 µM (inactive)
GI50 (SF-539): > 100 µM (inactive)
GI50 (SK-MEL-5): > 100 µM (inactive)
GI50 (M19-MEL): > 100 µM (inactive)
GI50 (RPMI-8226): > 100 µM (inactive)
GI50 (M14): > 100 µM (inactive)
GI50 (NCI-H460): > 100 µM (inactive)
GI50 (LXFL 529): > 100 µM (inactive)
GI50 (COLO 205): > 100 µM (inactive)
GI50 (UACC-257): > 100 µM (inactive)
GI50 (DMS-114): > 100 µM (inactive)
GI50 (TK-10): 6.32 µM (inactive)
GI50 (OVCAR-3): > 100 µM (inactive)
GI50 (HCT-116): > 100 µM (inactive)
GI50 (SNB-78): > 100 µM (inactive)
GI50 (SF-295): > 100 µM (inactive)
GI50 (A549): > 100 µM (inactive)
GI50 (HL-60): > 100 µM (inactive)
GI50 (EKVX): > 100 µM (inactive)
GI50 (HCC 2998): > 100 µM (inactive)
GI50 (SF-268): > 100 µM (inactive)
GI50 (KM12): > 100 µM (inactive)
GI50 (OVCAR-5): > 100 µM (inactive)
GI50 (XF498): 2.69 µM (inactive)
GI50 (IGROV-1): > 100 µM (inactive)
GI50 (SK-MEL-28): > 100 µM (inactive)

CCOC(=O)NC(=O)c1cn(CCCOC(=O)NCCCCCCNC(=O)OCCCn2c(=O)c(C(=O)NC(=O)OCC)cn(C)c2=O)c(=O)n(C)c1=O
GI50 (SK-OV-3): > 100 µM (inactive)
GI50 (SK-MEL-2): > 100 µM (inactive)
GI50 (RXF 393): 24.8 µM (inactive)
GI50 (NCI-H522): > 100 µM (inactive)
GI50 (KM-20L2): > 100 µM (inactive)
GI50 (A498): > 100 µM (inactive)
GI50 (NCI-H226): > 100 µM (inactive)
GI50 (CCRF-CEM): > 100 µM (inactive)
GI50 (LOX IMVI): > 100 µM (inactive)
GI50 (786-0): > 100 µM (inactive)
GI50 (MOLT-4): > 100 µM (inactive)
GI50 (OVCAR-4): > 100 µM (inactive)
GI50 (ACHN): > 100 µM (inactive)
GI50 (SNB-75): 22.2 µM (inactive)
GI50 (HCT-15): > 100 µM
GI50 (RXF 631): > 100 µM (inactive)
GI50 (Malme-3M): > 100 µM (inactive)
GI50 (OVCAR-8): > 100 µM (inactive)
GI50 (UO-31): > 100 µM (inactive)
GI50 (DLD-1): > 100 µM (inactive)
GI50 (HOP-18): 52.4 µM (inactive)
GI50 (NCI-H23): > 100 µM (inactive)
GI50 (SN12C): > 100 µM (inactive)
GI50 (HT-29): > 100 µM (inactive)
GI50 (SW-620): > 100 µM (inactive)
GI50 (UACC-62): > 100 µM (inactive)
GI50 (K562): > 100 µM (inactive)
GI50 (HOP-92): > 100 µM (inactive)
GI50 (U-251): 61.2 µM (inactive)
GI50 (DMS-273): > 100 µM (inactive)
GI50 (M19-MEL): > 100 µM (inactive)
GI50 (CAKI-1): > 100 µM (inactive)
GI50 (RPMI-8226): > 100 µM (inactive)
GI50 (M14): > 100 µM (inactive)
GI50 (NCI-H460): > 100 µM (inactive)
GI50 (LXFL 529): > 100 µM (inactive)
GI50 (COLO 205): > 100 µM (inactive)
GI50 (UACC-257): > 100 µM (inactive)
GI50 (DMS-114): > 100 µM (inactive)
GI50 (TK-10): 88.7 µM (inactive)
GI50 (OVCAR-3): > 100 µM (inactive)
GI50 (HCT-116): > 100 µM (inactive)
GI50 (A549): > 100 µM (inactive)
GI50 (HL-60): > 100 µM (inactive)
GI50 (HCC 2998): > 100 µM (inactive)
GI50 (SF-268): > 100 µM (inactive)
GI50 (KM12): > 100 µM (inactive)
GI50 (OVCAR-5): > 100 µM (inactive)
GI50 (IGROV-1): > 100 µM (inactive)
GI50 (SK-MEL-28): > 100 µM (inactive)

O=C1OC(c2ccccc2)C2CC3CC4(CCC3CN12)OCCO4 (stereo not drawn)
GI50 (SK-OV-3): > 100 µM (inactive)
GI50 (SK-MEL-2): > 100 µM (inactive)
GI50 (RXF 393): > 100 µM (inactive)
GI50 (NCI-H522): 0.142 µM (active)
GI50 (KM-20L2): > 100 µM (inactive)
GI50 (A498): > 100 µM (inactive)
GI50 (HOP-62): > 100 µM (inactive)
GI50 (NCI-H226): > 100 µM (inactive)
GI50 (CCRF-CEM): > 100 µM (inactive)
GI50 (LOX IMVI): > 100 µM (inactive)
GI50 (786-0): > 100 µM (inactive)
GI50 (MOLT-4): > 100 µM (inactive)
GI50 (OVCAR-4): 88.5 µM (inactive)
GI50 (SNB-19): > 100 µM (inactive)
GI50 (SNB-75): 52 µM (inactive)
GI50 (HCT-15): > 100 µM
GI50 (RXF 631): > 100 µM (inactive)
GI50 (OVCAR-8): > 100 µM (inactive)
GI50 (UO-31): > 100 µM (inactive)
GI50 (NCI-H23): 36.9 µM (inactive)
GI50 (SR): > 100 µM (inactive)
GI50 (SN12C): > 100 µM (inactive)
GI50 (HT-29): > 100 µM (inactive)
GI50 (SW-620): > 100 µM (inactive)
GI50 (UACC-62): 21.5 µM (inactive)
GI50 (K562): 45.9 µM (inactive)
GI50 (HOP-92): 80 µM (inactive)
GI50 (U-251): > 100 µM (inactive)
GI50 (DMS-273): > 100 µM (inactive)
GI50 (SF-539): > 100 µM (inactive)
GI50 (SK-MEL-5): 17.9 µM (inactive)
GI50 (CAKI-1): > 100 µM (inactive)
GI50 (RPMI-8226): 94 µM (inactive)
GI50 (M14): > 100 µM (inactive)
GI50 (NCI-H460): > 100 µM (inactive)
GI50 (LXFL 529): 32.7 µM (inactive)
GI50 (COLO 205): > 100 µM (inactive)
GI50 (UACC-257): > 100 µM (inactive)
GI50 (TK-10): > 100 µM (inactive)
GI50 (OVCAR-3): > 100 µM (inactive)
GI50 (HCT-116): > 100 µM (inactive)
GI50 (SNB-78): > 100 µM (inactive)
GI50 (SF-295): > 100 µM (inactive)
GI50 (A549): > 100 µM (inactive)
GI50 (HL-60): 67.8 µM (inactive)
GI50 (EKVX): > 100 µM (inactive)
GI50 (SF-268): > 100 µM (inactive)
GI50 (KM12): > 100 µM (inactive)
GI50 (OVCAR-5): > 100 µM (inactive)
GI50 (XF498): 70.8 µM (inactive)
GI50 (IGROV-1): > 100 µM (inactive)
GI50 (SK-MEL-28): > 100 µM (inactive)
